According to the NIST ThermoML archive (doi:10.1021/je700618y):

What was measured:
[1] = refractive index (Na D-line) (dimensionless); settings: 298.15 K; 101.33 kPa; Liquid; Standard Abbe refractometry
[2] = 298.15 K, 101.33 kPa, Liquid; for viscosity: Capillary tube (Ostwald / Ubbelohde) method
[3] = xn = mol fraction of the nth substance listed; settings: 298.15 K, 101 kPa, Liquid; for viscosity: Capillary tube (Ostwald / Ubbelohde) method; for mass density: Vibrating tube method
[4] = refractive index (Na D-line) (dimensionless); xn = mol fraction of the nth substance listed; settings: 298.15 K, 101 kPa, Liquid, Standard Abbe refractometry

COS(=O)(=O)[O-].C[N+](CCO)(CCO)CCO [tris(2-hydroxyethyl) methylammonium methylsulfate]
Settings	refractive index	viscosity [mPa·s]
[1]	1.48489	–
[2]	–	1236

Settings	mass density [kg/m3]
[2], Vibrating tube method	1344.13

CCO [ethanol]
Settings	mass density [kg/m3]	refractive index	viscosity [mPa·s]
[1]	–	1.35937	–
[2]	785.12	–	1.076

COS(=O)(=O)[O-].C[N+](CCO)(CCO)CCO [tris(2-hydroxyethyl) methylammonium methylsulfate] + CCO
Settings	mass density, [3] [kg/m3]	refractive index, [4]	viscosity, [3] [mPa·s]
x1 = 0.0482	876.74	1.3818	2.26
x1 = 0.0981	951.17	1.39899	4.523
x1 = 0.1509	1014.1	1.41373	8.351
x1 = 0.1994	1061.07	1.42476	13.32
x1 = 0.242	1097.16	1.43322	19.62
x1 = 0.2922	1132.75	1.44083	29.16
x1 = 0.3882	1187.8	1.45307	58.72
x1 = 0.4841	1229.34	1.46222	110.8
x1 = 0.5923	1264.46	1.4695	204.3
x1 = 0.6288	1273.93	1.47153	247.6
x1 = 0.6881	1288.67	1.47511	333.6
x1 = 0.7379	1299.19	1.47666	430.4
x1 = 0.7878	1309.46	1.47867	518.1
x1 = 0.8379	1318.78	1.48018	657.1
x1 = 0.8738	1324.39	1.48134	775.7
x1 = 0.9203	1331.87	1.48278	902.1

CCO [ethanol] + O
Settings	mass density, [3] [kg/m3]	refractive index, [4]	viscosity, [3] [mPa·s]
x2 = 0.048	791.06	1.36013	1.158
x2 = 0.1116	799.08	1.361	1.261
x2 = 0.1599	805.32	1.3615	1.326
x2 = 0.1761	807.44	1.36168	1.36
x2 = 0.2668	820.06	1.36247	1.496
x2 = 0.301	825.06	1.36266	1.556
x2 = 0.3994	840.69	1.36295	1.726
x2 = 0.497	858.26	1.3628	1.932
x2 = 0.6122	882.42	1.36176	2.161
x2 = 0.7116	907.85	1.35974	2.385
x2 = 0.7774	926.61	1.35727	2.353
x2 = 0.8145	937.62	1.3554	2.366
x2 = 0.8529	949.42	1.35243	2.193
x2 = 0.8967	960.95	1.34783	1.92
x2 = 0.9481	976.77	1.34063	1.432

COS(=O)(=O)[O-].C[N+](CCO)(CCO)CCO [tris(2-hydroxyethyl) methylammonium methylsulfate] + O
Settings	mass density, [3] [kg/m3]	refractive index, [4]	viscosity, [3] [mPa·s]
x1 = 0.0478	1129.13	1.38887	2.341
x1 = 0.0967	1195.06	1.41769	5.054
x1 = 0.1939	1258.48	1.44581	16.79
x1 = 0.2421	1275.98	1.4539	27
x1 = 0.2894	1288.49	1.45949	41.22
x1 = 0.3872	1306.02	1.46758	86.07
x1 = 0.4858	1317.49	1.47335	159.5
x1 = 0.6064	1327.14	1.47587	290.1
x1 = 0.6698	1330.96	1.47878	390.7
x1 = 0.7822	1336.36	1.4813	569
x1 = 0.867	1339.64	1.4827	756.2
x1 = 0.9398	1342.07	1.48341	960.7
